{
  "source": "the NIST ThermoML archive (doi:10.1016/j.jct.2006.10.009)",
  "key": {"[1]": {"assay": "Molar enthalpy of transition or fusion", "conditions": "Crystal; DSC"}, "[2]": {"conditions": "Crystal"}},
  "note": "± gives the expanded uncertainty stated by the source.",
  "data": [
    {"smiles": "CCCCCCCCCC[N+](C)(C)CCCCCCCCCC.O=[N+]([O-])[O-]", "note": "[Didecyldimethylammonium nitrate]", "values": [
      {"measurement": "Molar enthalpy of transition or fusion", "setting": "[1]", "value": "2.36 ± 0.086", "unit": "kcal/mol"},
      {"measurement": "Normal melting temperature", "setting": "[2]; DTA", "value": "31.7 ± 4", "unit": "°C"}
    ]},
    {"smiles": "CCCCO", "note": "[butan-1-ol]", "values": [
      {"measurement": "Normal melting temperature", "setting": "[2]; visual observation", "value": "-89.4 ± 4", "unit": "°C"}
    ]},
    {"smiles": "CCCCCCCCCCO", "note": "[decan-1-ol]", "values": [
      {"measurement": "Normal melting temperature", "setting": "[2]; visual observation", "value": "5.1 ± 4", "unit": "°C"}
    ]},
    {"smiles": "CCCCCCCCCCCCCCCC", "note": "[hexadecane]", "values": [
      {"measurement": "Normal melting temperature", "setting": "[2]; visual observation", "value": "18.0 ± 4", "unit": "°C"}
    ]},
    {"smiles": "CCCCCC", "note": "[hexane]", "values": [
      {"measurement": "Normal melting temperature", "setting": "[2]; visual observation", "value": "-94.3 ± 4", "unit": "°C"}
    ]},
    {"smiles": "CCCCCCCCO", "note": "[octan-1-ol]", "values": [
      {"measurement": "Normal melting temperature", "setting": "[2]; visual observation", "value": "-14.9 ± 4", "unit": "°C"}
    ]},
    {"smiles": "CCCO", "note": "[propan-1-ol]", "values": [
      {"measurement": "Normal melting temperature", "setting": "[2]; visual observation", "value": "-126.4 ± 4", "unit": "°C"}
    ]},
    {"smiles": "CCCc1ccccc1", "note": "[propylbenzene]", "values": [
      {"measurement": "Normal melting temperature", "setting": "[2]; visual observation", "value": "-99.0 ± 4", "unit": "°C"}
    ]},
    {"smiles": "Cc1ccccc1", "note": "[toluene]", "values": [
      {"measurement": "Normal melting temperature", "setting": "[2]; visual observation", "value": "-95.0 ± 4", "unit": "°C"}
    ]}
  ]
}
